One experiment concerns the target T1, Human TOR (Homo sapiens, UniProt P42345).
T1 construct: FLAG
The experiment can be described thus: Human TOR (mTOR) kinase assay, DELFIA format. It counts as biochemical. On the procedure: The PI3K/AKT/TOR pathway is critical for cell proliferation, growth, survival, and angiogensis. Accordingly, compounds of the present invention may also be useful to inhibit TOR activity. Similar in vivo and in vitro assays to those described above with reference to PI3K can be used to determine the minimum concentration of compound sufficient to inhibit TOR. A human TOR assay and a Rat1-IGF1 assay as described in Examples 67 and 68, respectively was performed with some embodiments of the invention. The results of these assays are shown below in Tables 1 and 2.
Human TOR assays (See Toral-Barza, et al. Biochem Biophys. Res. Commun. 2005 Jun. 24; 332(1):304-10) with purified enzyme are performed in 96-well plates by DELFIA format as follows. Enzymes are first diluted in kinase assay buffer (10 mM Hepes (pH 7.4), 50 mM NaCl, 50 mM b-glycerophosphate, 10 mM MnCl2, 0.5 mM DTT, 0.25 mM microcystin LR, and […] BSA). To each well, 12 mL of the diluted enzyme is mixed briefly with 0.5 mL test inhibitor or control vehicle dimethylsulfoxide (DMSO). The kinase reaction is initiated by adding 12.5 mL kinase assay buffer containing ATP and His6-S6K to give a final reaction volume of 25 mL containing 800 ng/mL FLAG-TOR, […] ATP and […] His6-S6K. The reaction plate is incubated for 2 hours (linear at 1-6 hours) at room temperature with gentle shaking and then terminated by adding 25 mL Stop buffer (20 mM Hepes (pH 7.4), 20 mM EDTA, 20 mM EGTA). The DELFIA detection of the phosphorylated (Thr-389) His6-S6K is performed at room temperature using a monoclonal anti-P(T389)-p70S6K antibody (1A5, Cell Signaling) labeled with Europium-N1-ITC (Eu) (10.4 Eu per antibody, PerkinElmer). The DELFIA Assay buffer and Enhancement solution can be purchased from PerkinElmer. 45 mL of the terminated kinase reaction mixture is transferred to a MaxiSorp plate (Nunc) containing 55 mL PBS. The His6-S6K is allowed to attach for 2 hours after which the wells are aspirated and washed once with PBS. 100 mL of DELFIA Assay buffer with 40 ng/mL Eu-P(T389)-S6K antibody is added. The antibody binding is continued for 1 hour with gentle agitation. The wells are then aspirated and washed 4 times with PBS containing 0.05% Tween-20 (PBST). […] of DELFIA Enhancement solution is added to each well and the plates are read in a PerkinElmer Victor model plate reader. Data obtained is used to calculate enzymatic activity and enzyme inhibition by potential inhibitors.

Experiment [1] deals with phosphor-AKT (S473) in Rat1 cells. The experiment in a line: Rat1-IGF1 assay (IGF-1 induced phospho-AKT immunoblot). The format is cell-based, rat. The conditions noted are these: Rattus norvegicus, Table 1. On the procedure:
Rat1 cells are plated in 6-well culture plates and serum-starved for 24 hours. Serum-starved cells are treated either with control vehicle or with various concentrations of 17-HWT for 2 hours, stimulated by IGF-1 (100 ng/mL) for 30 minutes. Total cellular lysates are prepared using NuPAGE-LDS sample buffer (Invitrogen), sonicated and then clarified by centrifugation. Equal amounts of proteins are subject to immunoblotting analysis using NuPAGE electrophoresis system and probed with phosphor-AKT (S473), total AKT antibodies (Signaling Technology).
In general terms: A western blot detects proteins with antibodies after separation by electrophoresis.

In experiment [2] the test system is LNCaP (human prostate carcinoma). The experiment can be described thus: Cell proliferation (MTS) assay, LNCaP. To be noted: Homo sapiens, LNCaP, 72 h, three days treatment. It counts as cell-based. The method, then: (§1) Results of cell proliferation assays for exemplary compounds are shown below in Tables 1 and 2. Cell lines LNCaP (human prostate carcinoma), MDA468 (human breast cancer cell), MDA435 (human breast adenocarcinoma), and DU145 (human prostate carcinoma[…]) were purchased from American Type Culture Collection (ATCC) (Rockville, Md.). Cells were cultured in RPMI Medium 1640 containing 10% fetal bovine serum (FBS) in a 37° C. incubator containing 5% CO2. All cell culture reagents were purchased from Gibco-BRL (Grand Island, N.Y.). Cells were plated in 96-well culture plates at about 3000 cells per well. One day following plating, compounds or vehicle controls (buffer only) were added to cells. Proliferation assays were performed three days post initiation of treatment.
(§2) For a non-radioactive cell proliferation assay, viable cell densities are determined by measuring metabolic conversion (by viable cells) of the dye MTS tatrazolium dye, a cell proliferation assay known by one of skill in the art (MTS assay), a previously established cell proliferation assay. The assay is performed using an assay kit (Promega Corp., Madison, Wis.). The assay plates are incubated for 1-2 hours, and the results are read in a 96-well format plate reader by measuring absorbance at 490 nm. Effect of each compound is calculated as a percentage of control cell growth obtained from vehicle-treated cells grown in the same plate.

The test system of experiment [3] is MDA468 (human breast cancer cell). The experiment in a line: Cell proliferation (MTS) assay, MDA468. It counts as cell-based. To be noted: Homo sapiens, 72 h, three days treatment. The method, then: as §1, §2
Experiment [4] relates to MDA435 (human breast adenocarcinoma). The experiment can be described thus: Cell proliferation (MTS) assay, MDA435. The format is cell-based. To be noted: Homo sapiens, MDA435, 72 h, three days treatment. The method, then: as §1, §2
For experiment [5], the system named is DU145 (human prostate carcinoma/lymphocytic leukemia). The experiment can be described thus: Cell proliferation (MTS) assay, DU145. It counts as cell-based. To be noted: Homo sapiens, DU-145, 72 h, three days treatment. On the procedure: as §1, §2

pIC50: −log10 of the molar value.

What is called pIC50 is −log10 of the IC50, conventionally taken in molar units. A lower pIC50 goes with a large IC50. In general, IC50 refers to the concentration that inhibits the measured activity by half. Lower therefore signals higher potency.

Regarding `CCCCN(C)/C=C1/C(=O)O[C@H](COC)[C@@]2(C)C1=C(O)C(=O)C1=C2[C@H](OC(C)=O)C[C@@]2(C)C1CC[C@@H]2O` (stereo partly drawn) [Compound 8, (1E,4S,4aR,5R,6aS,7S)-1-{[butyl(methyl)amino]methylene}-7,11-dihydroxy-4-(methoxymethyl)-4a,6a-dimethyl-2,10-dioxo-1,2,4,4a,5,6,6a,7,8,9,9a,10-dodecahydroindeno[4,5-h]isochromen-5-yl acetate], the pIC50 at Human TOR (Table 1) was 5.08; at Human TOR (Table 2) it was 5.04. Besides, the IC50 in experiment [1] was 0.1 µg/mL; in experiment [2] (Table 1), 0.09 µg/mL; in experiment [2] (Table 2), 0.12 µg/mL; in experiment [3] (Table 1), 0.6 µg/mL; in experiment [3] (Table 2) it was 0.9 µg/mL; in experiment [4] (Table 1) it was 5 µg/mL. Further, the figures for the concentration for half-maximal inhibition (IC50) in experiment [4] (Table 2), in experiment [5] (Table 1) and in experiment [5] (Table 2) were 3.1 µg/mL, 2 µg/mL and 1.3 µg/mL, respectively.

With `COC[C@H]1OC(=O)/C(=C/N(C)C2CCCCC2)C2=C(O)C(=O)C3=C([C@H](OC(C)=O)C[C@@]4(C)C3CC[C@@H]4O)[C@]21C` (stereo partly drawn) [Compound 9, (1E,4S,4aR,5R,6aS,7S)-1-{[cyclohexyl(methyl)amino]methylene}-7,11-dihydroxy-4-(methoxymethyl)-4a,6a-dimethyl-2,10-dioxo-1,2,4,4a,5,6,6a,7,8,9,9a,10-dodecahydroindeno[4,5-h]isochromen-5-yl acetate], the pIC50 against Human TOR (Table 1) was 4.06. The IC50 in experiment [1] was > 0.1 µg/mL; in experiment [2] (Table 1) it was 9.5 µg/mL; in experiment [3] (Table 1) it was 10 µg/mL; in experiment [4] (Table 1) it was 15 µg/mL; in experiment [5] (Table 1), 13 µg/mL.

Consider `COC[C@H]1OC(=O)/C(=C/N2CCN(Cc3ccccc3)CC2)C2=C(O)C(=O)C3=C([C@H](OC(C)=O)C[C@@]4(C)C3CC[C@@H]4O)[C@]21C` (stereo partly drawn) [Compound 10, (1E,4S,4aR,5R,6aS,7S)-1-[(4-benzylpiperazin-1-yl)methylene]-7,11-dihydroxy-4-(methoxymethyl)-4a,6a-dimethyl-2,10-dioxo-1,2,4,4a,5,6,6a,7,8,9,9a,10-dodecahydroindeno[4,5-h]isochromen-5-yl acetate], for which the pIC50 against Human TOR (Table 1) is 6.05. For the same molecule, the IC50 was 0.02 µg/mL in experiment [1]; 1 µg/mL in experiment [2] (Table 1); 1.8 µg/mL in experiment [3] (Table 1); > 15 µg/mL in experiment [4] (Table 1); 15 µg/mL in experiment [5] (Table 1).

Take `COC[C@H]1OC(=O)/C(=C/N2CCCCC2)C2=C(O)C(=O)C3=C([C@H](OC(C)=O)C[C@@]4(C)C3CC[C@@H]4O)[C@]21C` (stereo partly drawn) [Compound 11, (1E,4S,4aR,5R,6aS,7S)-7,11-dihydroxy-4-(methoxymethyl)-4a,6a-dimethyl-2,10-dioxo-1-(piperidin-1-ylmethylene)-1,2,4,4a,5,6,6a,7,8,9,9a,10-dodecahydroindeno[4,5-h]isochromen-5-yl acetate]: the pIC50 against Human TOR (Table 1) was 5.72. For the same molecule, the IC50 in experiment [1] was 0.02 µg/mL; in experiment [2] (Table 1), 0.8 µg/mL; in experiment [3] (Table 1), 1.8 µg/mL; in experiment [4] (Table 1), > 15 µg/mL; in experiment [5] (Table 1), 15 µg/mL.

Regarding `COC[C@H]1OC(=O)/C(=C/N2CCc3ccccc3C2)C2=C(O)C(=O)C3=C([C@H](OC(C)=O)C[C@@]4(C)C3CC[C@@H]4O)[C@]21C` (stereo partly drawn) [Compound 12, (1E,4S,4aR,5R,6aS,7S)-1-(3,4-dihydroisoquinolin-2(1H)-ylmethylene)-7,11-dihydroxy-4-(methoxymethyl)-4a,6a-dimethyl-2,10-dioxo-1,2,4,4a,5,6,6a,7,8,9,9a,10-dodecahydroindeno[4,5-h]isochromen-5-yl acetate], the pIC50 against Human TOR (Table 1) is 5.50. Also, the IC50 in experiment [1] is 0.1 µg/mL; in experiment [2] (Table 1) it was 2.8 µg/mL; in experiment [3] (Table 1) it was 6 µg/mL; in experiment [4] (Table 1), > 15 µg/mL; in experiment [5] (Table 1), > 15 µg/mL.

As for `COC[C@H]1OC(=O)/C(=C/N2CCN(c3ccccc3)CC2)C2=C(O)C(=O)C3=C([C@H](OC(C)=O)C[C@@]4(C)C3CC[C@@H]4O)[C@]21C` (stereo partly drawn) [Compound 13, (1E,4S,4aR,5R,6aS,7S)-7,11-dihydroxy-4-(methoxymethyl)-4a,6a-dimethyl-2,10-dioxo-1-[(4-phenylpiperazin-1-yl)methylene]-1,2,4,4a,5,6,6a,7,8,9,9a,10-dodecahydroindeno[4,5-h]isochromen-5-yl acetate], the results for the pIC50 on Human TOR (Table 1) and at Human TOR (Table 2) were 6.22 and 6.11, respectively. Further, the IC50 in experiment [1] was 0.05 µg/mL; in experiment [2] (Table 1) it was 0.8 µg/mL; in experiment [2] (Table 2) it was 0.33 µg/mL; in experiment [3] (Table 1), 2 µg/mL; in experiment [3] (Table 2), 3.5 µg/mL; in experiment [4] (Table 1) it was > 15 µg/mL. Further, the values for the IC50 in experiment [4] (Table 2), in experiment [5] (Table 1) and in experiment [5] (Table 2) were 13 µg/mL, 15 µg/mL and 17 µg/mL, respectively.

In turn, `COC[C@H]1OC(=O)/C(=C/N2CCN(C)CC2)C2=C(O)C(=O)C3=C([C@H](OC(C)=O)C[C@@]4(C)C3CC[C@@H]4O)[C@]21C` (stereo partly drawn) [Compound 14, (1E,4S,4aR,5R,6aS,7S)-7,11-dihydroxy-4-(methoxymethyl)-4a,6a-dimethyl-1-[(4-methylpiperazin-1-yl)methylene]-2,10-dioxo-1,2,4,4a,5,6,6a,7,8,9,9a,10-dodecahydroindeno[4,5-h]isochromen-5-yl acetate] had a pIC50 against Human TOR (Table 1) of 6.08. Besides, the half-maximal inhibitory concentration (IC50) was 0.02 µg/mL in experiment [1]; 0.58 µg/mL in experiment [2] (Table 1); 2 µg/mL in experiment [3] (Table 1); > 15 µg/mL in experiment [4] (Table 1); 15 µg/mL in experiment [5] (Table 1).

On Human TOR (Table 1), `COC[C@H]1OC(=O)/C(=C/N2CCC(c3ccccc3)CC2)C2=C(O)C(=O)C3=C([C@H](OC(C)=O)C[C@@]4(C)C3CC[C@@H]4O)[C@]21C` (stereo partly drawn) [Compound 15, (1E,4S,4aR,5R,6aS,7S)-7,11-dihydroxy-4-(methoxymethyl)-4a,6a-dimethyl-2,10-dioxo-1-[(4-phenylpiperidin-1-yl)methylene]-1,2,4,4a,5,6,6a,7,8,9,9a,10-dodecahydroindeno[4,5-h]isochromen-5-yl acetate] showed a pIC50 of 5.61. In addition, the IC50 in experiment [1] was 0.02 µg/mL; in experiment [2] (Table 1), 0.9 µg/mL; in experiment [3] (Table 1), 2.3 µg/mL; in experiment [4] (Table 1) it was > 15 µg/mL; in experiment [5] (Table 1), 15 µg/mL.

(Values after patent US7666901B2, “Analogs of 17-hydroxywortmannin as PI3K inhibitors” (Wyeth, priority 2004, dated 2010).)
